Test results: patent US20080119515A1, “Heterocyclic Kinase Inhibitors: Methods of Use and Synthesis” (priority 2003, published 2008)

These compounds were tested against T1, ZAP-70 (Homo sapiens, UniProt P43403) (assay: DELFIA assay (ZAP-70 kinase, phosphorylation of biotinylated poly(glu,tyr))). Details: ZAP-70 DELFIA, class symbols; read-out: Activity (IC50 in vitro).
T1 sequence (P43403 1-619): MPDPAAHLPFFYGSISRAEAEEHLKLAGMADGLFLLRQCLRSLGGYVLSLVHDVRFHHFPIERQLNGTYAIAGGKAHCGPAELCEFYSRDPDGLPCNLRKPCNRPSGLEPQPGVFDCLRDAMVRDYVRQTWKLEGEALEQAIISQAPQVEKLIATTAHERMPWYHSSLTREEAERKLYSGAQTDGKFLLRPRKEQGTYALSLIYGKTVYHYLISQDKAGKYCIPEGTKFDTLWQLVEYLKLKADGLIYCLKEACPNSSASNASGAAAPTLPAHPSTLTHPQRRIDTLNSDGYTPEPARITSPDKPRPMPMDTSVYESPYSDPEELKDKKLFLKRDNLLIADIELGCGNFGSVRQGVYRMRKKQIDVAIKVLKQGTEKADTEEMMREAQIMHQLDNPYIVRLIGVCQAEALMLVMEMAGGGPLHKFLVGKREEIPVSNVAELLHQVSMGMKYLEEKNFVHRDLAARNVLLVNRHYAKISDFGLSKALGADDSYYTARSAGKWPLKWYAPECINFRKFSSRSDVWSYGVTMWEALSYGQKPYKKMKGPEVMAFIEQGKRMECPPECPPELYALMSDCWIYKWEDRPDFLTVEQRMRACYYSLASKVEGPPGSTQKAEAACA
Assay type: biochemical
Procedure, shortened: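 3.1 nM ZAP-70 pre-incubated 10 min at room temperature with compound ([…]) and 62.5 nM biotinylated poly(glu,tyr) in 62.5 mM Mops pH 7.0, 12.5 mM MgCl2, 12.5% glycerol, 6.25% DMSO (pre-incubation concentrations); ATP added from 5 mM stock, 30 min reaction, EDTA stop. Phosphorylation read by DELFIA europium anti-phosphotyrosine fluorescence (340/615).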
In the case of `O=C(c1cc(Sc2ccc(C(F)(F)F)cc2)nc2ccc(-c3ccc4c(c3)OCO4)cc12)N1CCC[C@H]1CN1CCCC1` [Compound 323], the IC50 is reported as > 10 µM.
`O=C(c1cc(Sc2cccc(C(F)(F)F)c2)nc2ccc(-c3ccc4c(c3)OCO4)cc12)N1CCC[C@H]1CN1CCCC1` [Compound 324] was tested, and the IC50 was < 1 µM.
In the case of `O=C(c1cc(Sc2ccc(OC(F)(F)F)cc2)nc2ccc(-c3ccc4c(c3)OCO4)cc12)N1CCC[C@H]1CN1CCCC1` [Compound 325], the IC50 is reported as < 1 µM.
With `O=C(c1cc(SCc2ccc(Cl)cc2)nc2ccc(-c3ccc4c(c3)OCO4)cc12)N1CCC[C@H]1CN1CCCC1` [Compound 326] the IC50 was < 1 µM.
In the case of `O=C(c1cc(N2CCC[C@H]2CO)nc2ccc(-c3ccc4c(c3)OCO4)cc12)N1CCC[C@H]1CN1CCCC1` [Compound 327], the IC50 is reported as > 10 µM.
With `COC[C@H]1CCCN1c1cc(C(=O)N2CCC[C@H]2CN2CCCC2)c2cc(-c3ccc4c(c3)OCO4)ccc2n1` [Compound 328] the IC50 was 1 to 10 µM.
`COC[C@@H]1CCCN1c1cc(C(=O)N2CCC[C@H]2CN2CCCC2)c2cc(-c3ccc4c(c3)OCO4)ccc2n1` [Compound 329] was tested, and the IC50 was > 10 µM.
For `C[C@@H](Nc1cc(C(=O)N2CCC[C@H]2CN2CCCC2)c2cc(-c3ccc4c(c3)OCO4)ccc2n1)c1ccc(Cl)cc1` [Compound 330], the IC50 was < 1 µM.
`C[C@H](Nc1cc(C(=O)N2CCC[C@H]2CN2CCCC2)c2cc(-c3ccc4c(c3)OCO4)ccc2n1)c1ccc(Cl)cc1` [Compound 331] was tested, and the IC50 was < 1 µM.
For `O=C(c1cc(NCc2ccc(C(F)(F)F)cc2)nc2ccc(-c3cncnc3)cc12)N1CCC[C@H]1CN1CCCC1` [Compound 332], the IC50 was > 10 µM.
For `O=C(c1cc(NCc2ccc(C(F)(F)F)cc2)nc2ccc(-c3ccccn3)cc12)N1CCC[C@H]1CN1CCCC1` [Compound 333], the IC50 was > 10 µM.
For `O=C(c1cc(NCc2ccc(C(F)(F)F)cc2)nc2ccc(-c3cccnc3)cc12)N1CCC[C@H]1CN1CCCC1` [Compound 334], the IC50 was > 10 µM.
`O=C(c1cc(NCc2ccc(C(F)(F)F)cc2)nc2ccc(-c3cncc4ccccc34)cc12)N1CCC[C@H]1CN1CCCC1` [Compound 335] was tested, and the IC50 was > 10 µM.
In the case of `O=C(c1cc(NCc2ccc(C(F)(F)F)cc2)nc2ccc(-c3ncccn3)cc12)N1CCC[C@H]1CN1CCCC1` [Compound 336], the IC50 is reported as > 10 µM.
With `Cc1ccsc1-c1ccc2nc(NCc3ccc(C(F)(F)F)cc3)cc(C(=O)N3CCC[C@H]3CN3CCCC3)c2c1` [Compound 337] the IC50 was > 10 µM.
In the case of `Cc1noc(C)c1-c1ccc2nc(NCc3ccc(C(F)(F)F)cc3)cc(C(=O)N3CCC[C@H]3CN3CCCC3)c2c1` [Compound 338], the IC50 is reported as > 10 µM.
With `N#Cc1cncc(-c2ccc3nc(NCc4ccc(C(F)(F)F)cc4)cc(C(=O)N4CCC[C@H]4CN4CCCC4)c3c2)c1` [Compound 339] the IC50 was > 10 µM.
In the case of `Cn1ccnc1-c1ccc2nc(NCc3ccc(C(F)(F)F)cc3)cc(C(=O)N3CCC[C@H]3CN3CCCC3)c2c1` [Compound 340], the IC50 is reported as > 10 µM.
For `O=C(c1cc(NCc2ccc(C(F)(F)F)cc2)nc2ccc(-c3nc(Cl)ns3)cc12)N1CCC[C@H]1CN1CCCC1` [Compound 341], the IC50 was > 10 µM.
In the case of `Cn1cncc1-c1ccc2nc(NCc3ccc(C(F)(F)F)cc3)cc(C(=O)N3CCC[C@H]3CN3CCCC3)c2c1` [Compound 342], the IC50 is reported as > 10 µM.
For `N#Cc1ncccc1-c1ccc2nc(NCc3ccc(C(F)(F)F)cc3)cc(C(=O)N3CCC[C@H]3CN3CCCC3)c2c1` [Compound 343], the IC50 was > 10 µM.
With `O=C(c1cc(NCc2ccc(C(F)(F)F)cc2)nc2ccc(-c3ccc(F)c(F)c3)cc12)N1CCC[C@H]1CN1CCCC1` [Compound 344] the IC50 was < 1 µM.
With `O=C(c1cc(NCc2ccc(C(F)(F)F)cc2)nc2ccc(-c3ccc(C(F)(F)F)cc3)cc12)N1CCC[C@H]1CN1CCCC1` [Compound 345] the IC50 was > 10 µM.
In the case of `O=C(c1cc(NCc2ccc(C(F)(F)F)cc2)nc2ccc(-c3cccc(Cl)c3Cl)cc12)N1CCC[C@H]1CN1CCCC1` [Compound 346], the IC50 is reported as > 10 µM.
For `O=C(c1cc(NCc2ccc(C(F)(F)F)cc2)nc2ccc(-c3ccccc3Cl)cc12)N1CCC[C@H]1CN1CCCC1` [Compound 347], the IC50 was > 10 µM.
For `O=C(c1cc(NCc2ccc(C(F)(F)F)cc2)nc2ccc(-c3ccc4c(c3)OC(F)(F)O4)cc12)N1CCC[C@H]1CN1CCCC1` [Compound 348], the IC50 was < 1 µM.
With `O=C(c1cc(NCc2ccc(C(F)(F)F)cc2)nc2ccc(-c3ccc4occc4c3)cc12)N1CCC[C@H]1CN1CCCC1` [Compound 349] the IC50 was < 1 µM.
With `O=C(c1cc(NCc2ccc(C(F)(F)F)cc2)nc2ccc(-c3ccc(SC(F)(F)F)cc3)cc12)N1CCC[C@H]1CN1CCCC1` [Compound 350] the IC50 was > 10 µM.
For `N#Cc1csc2ccc(-c3ccc4nc(NCc5ccc(C(F)(F)F)cc5)cc(C(=O)N5CCC[C@H]5CN5CCCC5)c4c3)cc12` [Compound 351], the IC50 was < 1 µM.
`O=C(c1cc(NCc2ccc(C(F)(F)F)cc2)nc2ccc(-c3ccc4ncsc4c3)cc12)N1CCC[C@H]1CN1CCCC1` [Compound 352] was tested, and the IC50 was < 1 µM.
With `Cc1c(-c2ccc3nc(NCc4ccc(C(F)(F)F)cc4)cc(C(=O)N4CCC[C@H]4CN4CCCC4)c3c2)sc2ccc(Cl)cc12` [Compound 353] the IC50 was > 10 µM.
For `O=C(c1cc(NCc2ccc(C(F)(F)F)cc2)nc2ccc(-c3nc4ccccc4[nH]3)cc12)N1CCC[C@H]1CN1CCCC1` [Compound 354], the IC50 was > 10 µM.
In the case of `O=C(c1cc(NCc2ccc(C(F)(F)F)cc2)nc2ccc(-c3ccc(-c4cnco4)s3)cc12)N1CCC[C@H]1CN1CCCC1` [Compound 355], the IC50 is reported as > 10 µM.
For `O=C(c1cc(NCc2ccc(C(F)(F)F)cc2)nc2ccc(I)cc12)N1CCC[C@H]1CN1CCCC1` [Compound 356], the IC50 was > 10 µM.
Compound `CNC[C@@H]1CCCN1C(=O)c1cc(NCc2ccc(C(F)(F)F)cc2)nc2ccc(-c3ccc4c(c3)OCO4)cc12` [Compound 357] has an IC50 of 1 to 10 µM.
For `O=C(c1cc(NCc2ccc(C(F)(F)F)cc2)nc2ccc(-c3ccc4c(c3)OCO4)cc12)N1CCC[C@H]1CNC1CCCC1` [Compound 358], the IC50 was < 1 µM.
For `O=C(c1cc(NCc2ccc(C(F)(F)F)cc2)nc2ccc(-c3ccc4c(c3)OCO4)cc12)N1CCC[C@H]1CNC1CCC1` [Compound 359], the IC50 was < 1 µM.
`O=C(c1cc(NCc2ccc(C(F)(F)F)cc2)nc2ccc(-c3ccc4c(c3)OCO4)cc12)N1CCC[C@H]1CNC1CCCCC1` [Compound 360] showed an IC50 of 1 to 10 µM.
With `O=C(c1cc(NCc2ccc(C(F)(F)F)cc2)nc2ccc(-c3ccc4c(c3)OCO4)cc12)N1CCC[C@H]1CNC1CC1` [Compound 361] the IC50 was 1 to 10 µM.
`O=C(c1cc(NCc2ccc(C(F)(F)F)cc2)nc2ccc(-c3ccc4c(c3)OCO4)cc12)N1CCC[C@H]1CO` [Compound 362] was tested, and the IC50 was > 10 µM.
With `CN(Cc1ccccc1)c1cc(C(=O)N2CCC[C@H]2CN2CCCC2)cc(N(C)c2ccccc2)n1` [Compound 363] the IC50 was 1 to 10 µM.
Compound `CN(CCc1ccccc1)c1cc(C(=O)N2CCC[C@H]2CN2CCCC2)cc(N(C)Cc2ccccc2)n1` [Compound 364] has an IC50 of 1 to 10 µM.
In the case of `CN(CCc1ccccc1)c1cc(C(=O)N2CCC[C@H]2CN2CCCC2)cc(/C=C/c2ccccc2)n1` [Compound 365], the IC50 is reported as 1 to 10 µM.
`CN(CCc1ccccc1)c1cc(C(=O)N2CCC[C@H]2CN2CCCC2)cc(/C=C/c2ccc(C(F)(F)F)cc2)n1` [Compound 366] showed an IC50 of 1 to 10 µM.
With `CN(CCc1ccccc1)c1cc(C(=O)N2CCC[C@H]2CN2CCCC2)cc(-c2ccccc2)n1` [Compound 367] the IC50 was > 10 µM.
For `CN(CCc1ccccc1)c1cc(C(=O)N2CCC[C@H]2CN2CCCC2)cc(-c2ccc3c(c2)OCO3)n1` [Compound 368], the IC50 was > 10 µM.
For `CN(CCc1ccccc1)c1cc(C(=O)N2CCC[C@H]2CN2CCCC2)cc(Cc2ccccc2)n1` [Compound 369], the IC50 was > 10 µM.
